# Test results as given in US20160199351A1, “COMPOSITIONS AND METHODS FOR INHIBITING FUNGAL INFECTIONS” (priority 2015, published 2016).
# Like-named read-outs stand apart in the source and are kept apart here.
# Legend:
# Pneumocystis murina = assay: In vitro ATP content of Pneumocystis (luciferin-luciferase assay)
# Pneumocystis carinii = assay: as above
# Histoplasma capsulatum = assay type: cell-based; details: 24-hour treatment
# C. glabrata = assay: MIC against Candida species (Table 4); details: Nakaseomyces glabratus, 24 h
# C. krusei = assay: MIC against Candida species (Table 4); details: Pichia kudriavzevii, 24 h
# Cryptococcus neoformans = assay: MIC against Cryptococcus neoformans (Table 4); details: Cryptococcus neoformans, 72 h
# C. parapsilosis = assay: MIC against Candida species (Table 4); details: 24 h
# C. guilliermondii = assay: MIC against Candida species (Table 4); details: Meyerozyma guilliermondii, 24 h
# P. variotii = assay: MIC (Table 5); details: Paecilomyces variotii, read-out: MIC 100%
# Paeceilomyces variotii = assay: MIC, CLSI M38-A2 broth dilution (Table 1); assay type: cell-based; details: isolate QC
# Rhizopus oryzae [1] = assay: MIC, CLSI M38-A2 broth dilution (Table 1); assay type: cell-based
# Lomentospora prolificans = assay: MIC, CLSI M38-A2 broth dilution (Table 1); assay type: cell-based; details: isolate LP1, 48 hours
# Rhizopus oryzae [2] = assay: MIC (Table 5); details: Rhizopus arrhizus, 24 h
# Scedosporium apiospermum = assay: MIC, CLSI M38-A2 broth dilution (Table 1); assay type: cell-based
# Apophysomyces = assay: MIC (Table 5); details: 24 h
# Fusarium solani = assay: MIC, CLSI M38-A2 broth dilution (Table 1); assay type: cell-based; details: isolate FS1, 48 hours
# Fusarium oxysporum = assay: MIC, CLSI M38-A2 broth dilution (Table 1); assay type: cell-based
# Blastomyces dermatitidis [3] = assay: MIC (Table 6); assay type: cell-based; details: read-out: MIC VORI 100% 50%
# Coccidioides sp. = assay: microbe, parasite or virus in culture; assay type: cell-based; details: Coccidioides
# Aspergillus fumigatus = assay: Recovery of Aspergillus fumigatus mycelia growth after removal of antifungal drugs (MTT); assay type: cell-based; details: treated 12 hours, drug removed, 24 hours more
# Fusarium sp. = assay: MIC (Table 5); assay type: cell-based; details: Fusarium, read-out: MIC 100%
# Blastomyces dermatitidis [4] = assay: MIC, macrodilution method (Table 1); assay type: cell-based; details: 96 hours
# Scedosporium sp. = assay: MIC (Table 5)
smiles,measurement,setting,value
"CC1(C)S[C@@H]2[C@H](NC(=O)[C@H](N)c3ccccc3)C(=O)N2[C@H]1C(=O)O [Ampicillin, ampicillin, reference compound]",Pm % Reduction in ATP/Vehicle Control,"Pneumocystis murina; Table 3, 10 μg/ml, 24 hours",0%
same,Pm % Reduction in ATP/Vehicle Control,"Pneumocystis murina; Table 3, 10 μg/ml, 48 hours",0%
same,Pm % Reduction in ATP/Vehicle Control,"Pneumocystis murina; Table 3, 10 μg/ml, 72 hours",0%
same,Pm % Reduction in ATP/Vehicle Control,"Pneumocystis carinii; Table 2, 10 μg/ml, 24 hours",0%
same,Pm % Reduction in ATP/Vehicle Control,"Pneumocystis carinii; Table 2, 10 μg/ml, 48 hours",0%
same,Pm % Reduction in ATP/Vehicle Control,"Pneumocystis carinii; Table 2, 10 μg/ml, 72 hours",0%
"OC(Cn1cncn1)(Cn1cncn1)c1ccc(F)cc1F [FLU, Fluconazole, reference compound]",reduction of fungal viability,Histoplasma capsulatum; then growth in absence of drug,did not significantly reduce fungal viability
same,viability staining of yeasts,Histoplasma capsulatum; ethidium bromide / fluorescein staining,only fungistatic
same,MIC50,"C. glabrata; isolate CG-1, 24 hrs",16 µg/mL
same,MIC50,"C. glabrata; isolate CG-2, 24 hrs",16 µg/mL
same,MIC50,"C. glabrata; isolate CG-3, 24 hrs",32 µg/mL
same,MIC50,"C. glabrata; isolate CG-4, 24 hrs",32 µg/mL
same,MIC50,"C. glabrata; isolate CG-5, 24 hrs",16 µg/mL
same,MIC50,"C. glabrata; isolate CG-6, 24 hrs",2 µg/mL
same,MIC50,"C. glabrata; isolate CG-7, 24 hrs",2 µg/mL
same,MIC50,"C. glabrata; isolate CG-8, 24 hrs",2 µg/mL
same,MIC50,"C. glabrata; isolate CG-9, 24 hrs",2 µg/mL
same,MIC50,"C. glabrata; isolate CG-10, 24 hrs",4 µg/mL
same,MIC50,C. krusei,8 µg/mL
same,MIC50,"Cryptococcus neoformans; isolate CN-1, 72 hrs",4 µg/mL
same,MIC50,"Cryptococcus neoformans; isolate CN-2, 72 hrs",12 µg/mL
same,MIC50,"Cryptococcus neoformans; isolate CN-3, 72 hrs",64 µg/mL
same,MIC50,"C. parapsilosis; isolate CP-1, 24 hrs",0.25 µg/mL
same,MIC50,"C. parapsilosis; isolate CP-2, 24 hrs",≤ 0.125 µg/mL
same,MIC50,"C. parapsilosis; isolate CP-3, 24 hrs",0.25 µg/mL
same,MIC50,"C. parapsilosis; isolate CP-4, 24 hrs",0.25 µg/mL
same,MIC50,"C. parapsilosis; isolate CP-5, 24 hrs",≤ 0.125 µg/mL
same,MIC50,"C. parapsilosis; isolate CP-6, 24 hrs",16 µg/mL
same,MIC50,"C. parapsilosis; isolate CP-7, 24 hrs",16 µg/mL
same,MIC50,C. parapsilosis; isolate QC,1 µg/mL
same,MIC50,"C. guilliermondii; isolate Cgu-1, 24 hrs",8 µg/mL
same,MIC50,"C. guilliermondii; isolate Cgu-2, 24 hrs",2 µg/mL
same,MIC50,"C. guilliermondii; isolate Cgu-3, 24 hrs",1 µg/mL
same,MIC50,"C. guilliermondii; isolate Cgu-4, 24 hrs",1 µg/mL
same,MIC50,"C. guilliermondii; isolate Cgu-5, 24 hrs",2 µg/mL
same,MIC50,"C. guilliermondii; isolate Cgu-6, 24 hrs",8 µg/mL
same,MIC50,"C. guilliermondii; isolate Cgu-7, 24 hrs",4 µg/mL
"CC[C@@H]([C@H](C)O)n1ncn(-c2ccc(N3CCN(c4ccc(OC[C@@H]5CO[C@@](Cn6cncn6)(c6ccc(F)cc6F)C5)cc4)CC3)cc2)c1=O [POS, Posaconazole, reference compound]",MIC,P. variotii; 24 h,0.06 µg/mL
same,MIC 100%,Paeceilomyces variotii,0.25 gg/m1
same,MIC 100%,"Rhizopus oryzae [1]; isolate RO1, 24 hours",1 gg/m1
same,MIC 100%,"Rhizopus oryzae [1]; isolate RO2, 24 hours",1 gg/m1
same,MIC 100%,"Rhizopus oryzae [1]; isolate RO3, 24 hours",1 gg/m1
same,MIC 100%,Lomentospora prolificans,0.5 gg/m1
same,MIC,"Rhizopus oryzae [2]; read-out: MIC 100%, isolate R-1, 24 hrs",0.5 µg/mL
same,MIC,"Rhizopus oryzae [2]; read-out: MIC 100%, isolate R-2, 24 hrs",0.5 µg/mL
same,MIC,"Rhizopus oryzae [2]; read-out: MIC 100%, isolate R-3, 24 hrs",0.5 µg/mL
same,MIC,"Rhizopus oryzae [2]; read-out: MIC 100%, isolate R-4, 24 hrs",0.125 µg/mL
same,MIC,"Rhizopus oryzae [2]; read-out: MIC 100%, isolate R-5, 24 hrs",0.25 µg/mL
same,MIC,"Rhizopus oryzae [2]; read-out: MIC 100%, isolate R-6, 24 hrs",0.125 µg/mL
same,MIC 100%,"Scedosporium apiospermum; isolate SA2, 72 hours",2 gg/m1
same,MIC,"Apophysomyces; read-out: MIC 100%, isolate AE-1, 24 hrs",0.125 µg/mL
same,MIC,"Apophysomyces; read-out: MIC 100%, isolate AE-2, 24 hrs",1 µg/mL
"N=C(N)c1ccc(OCCCCCOc2ccc(C(=N)N)cc2)cc1 [Pent., pentamidine isethionate, reference compound]",Pm % Reduction in ATP/Vehicle Control,"Pneumocystis murina; Table 3, 1 μg/ml, 24 hours",72.06%
same,Pm % Reduction in ATP/Vehicle Control,"Pneumocystis murina; Table 3, 1 μg/ml, 48 hours",87.94%
same,Pm % Reduction in ATP/Vehicle Control,"Pneumocystis murina; Table 3, 1 μg/ml, 72 hours",93.85%
same,Pm % Reduction in ATP/Vehicle Control,"Pneumocystis carinii; Table 2, 1 μg/ml, 24 hours",74.18%
same,Pm % Reduction in ATP/Vehicle Control,"Pneumocystis carinii; Table 2, 1 μg/ml, 48 hours",97.06%
same,Pm % Reduction in ATP/Vehicle Control,"Pneumocystis carinii; Table 2, 1 μg/ml, 72 hours",97.47%
"C[C@@H](c1ncncc1F)[C@](O)(Cn1cncn1)c1ccc(F)cc1F [VORI, Voriconazole, reference compound]",MIC 100%,Fusarium solani,8 gg/m1
same,MIC 100%,"Fusarium oxysporum; isolate FO1, 48 hours",16 gg/m1
same,MIC 100%,"Fusarium oxysporum; isolate FO2, 48 hours",16 gg/m1
same,MIC,"Blastomyces dermatitidis [3]; isolate BD1, 72/192 hrs",≤ 0.03 µg/mL
same,MIC,"Blastomyces dermatitidis [3]; isolate BD2, 72/192 hrs",0.125 µg/mL
same,MIC,"Blastomyces dermatitidis [3]; isolate BD3, 72/192 hrs",0.125 µg/mL
same,MIC,P. variotii,0.06 µg/mL
same,MIC 100%,Paeceilomyces variotii,0.125 gg/m1
same,MIC,"Coccidioides sp.; read-out: MIC VORI 100% 50%, isolate COCCI-1, 72/192 hrs",0.125 µg/mL
same,MIC,"Coccidioides sp.; read-out: MIC VORI 100% 50%, isolate COCCI-2, 72/192 hrs",0.25 µg/mL
same,MIC,"Coccidioides sp.; read-out: MIC VORI 100% 50%, isolate COCCI-3, 72/192 hrs",0.125 µg/mL
same,recovery of mycelia growth after removal of drug,Aspergillus fumigatus,leaves mycelia viable
same,MIC 100%,Lomentospora prolificans,16 gg/m1
same,MIC,"Fusarium sp.; isolate F-1, 48/72 hrs",8 µg/mL
same,MIC,"Fusarium sp.; isolate F-2, 48/72 hrs",8 µg/mL
same,MIC,"Fusarium sp.; isolate F-3, 48/72 hrs",> 16 µg/mL
same,MIC 100%,"Blastomyces dermatitidis [4]; isolate BD1, macrodilution",0.125 gg/m1
same,MIC 100%,"Blastomyces dermatitidis [4]; isolate BD2, macrodilution",≦0.03 gg/m1
same,MIC 100%,"Blastomyces dermatitidis [4]; isolate BD3, macrodilution",≦0.03 gg/m1
same,MIC,"Scedosporium sp.; read-out: MIC 100%, isolate S-1, 48/72 hrs",0.5 µg/mL
same,MIC,"Scedosporium sp.; read-out: MIC 100%, isolate S-2, 48/72 hrs",16 µg/mL
same,MIC 100%,"Scedosporium apiospermum; isolate SA1, 72 hours",0.25 gg/m1
same,MIC 100%,"Scedosporium apiospermum; isolate SA2, 72 hours",0.125 gg/m1
C[C@@H]1[C@H](O)[C@@H](C)/C=C/C=C/C=C/C=C/C=C/C=C/C=C/[C@H](O[C@@H]2O[C@H](C)[C@@H](O)[C@H](N)[C@@H]2O)C[C@@H]2O[C@](O)(C[C@@H](O)C[C@@H](O)[C@H](O)CC[C@@H](O)C[C@@H](O)CC(=O)O[C@H]1C)C[C@H](O)[C@H]2C(=O)O [amphotericin B],recovery of mycelia growth after removal of drug,Aspergillus fumigatus,no viable Aspergillus fumigatus mycelia
CC[C@H](C)C[C@H](C)CCCCCCCCC(=O)N[C@H]1C[C@@H](O)[C@@H](NCCN)NC(=O)[C@@H]2[C@@H](O)CCN2C(=O)[C@H]([C@H](O)CCN)NC(=O)[C@H]([C@H](O)[C@@H](O)c2ccc(O)cc2)NC(=O)[C@@H]2C[C@@H](O)CN2C(=O)[C@H]([C@@H](C)O)NC1=O [caspofungin],recovery of mycelia growth after removal of drug,Aspergillus fumigatus,leaves mycelia viable
